Consider 22 molecules from patent publication US11285156B2, “Substituted piperazines as KRAS G12C inhibitors” (Amgen Inc., priority 2018, dated 2022).

GDP-bound KRAS protein (aa 1-169), containing both G12C and C118A amino acid substitutions, sequence (P01116 other isoform, or with tags, fused parts or gaps G12C/C118A): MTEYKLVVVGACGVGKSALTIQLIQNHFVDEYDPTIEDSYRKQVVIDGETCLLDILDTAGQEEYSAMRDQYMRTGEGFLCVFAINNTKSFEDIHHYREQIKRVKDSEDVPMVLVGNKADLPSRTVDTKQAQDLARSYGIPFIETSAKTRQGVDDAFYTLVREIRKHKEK

The first assay addresses GDP-bound KRAS protein (aa 1-169), containing both G12C and C118A amino acid substitutions (Homo sapiens (Human), UniProt P01116, C118A/G12C). Briefly: Coupled nucleotide exchange assay (SOS-mediated nucleotide exchange, AlphaScreen). In kind it is biochemical. Particulars: 5 min compound pre-incubation.
Consider `C=CC(=O)N1C[C@H](C)N(c2nc(=O)n(-c3c(C)ccnc3C(C)C)c3nc(C45CCCCC4C5)c(Cl)cc23)C[C@H]1C` (atropisomer, axis not shown; (M)) [Example 207, (M)-6-Chloro-4-[(2S,5R)-2,5-dimethyl-4-prop-2-enoyl-piperazin-1-yl]-1-(2-isopropyl-4-methyl-3-pyridyl)-7-[norcaran-1-yl]pyrido[2,3-d]pyrimidin-2-one], for which the “Coupled exchange IC50 (5 min; μM)” value was 0.932 µM.

The same assay, now with this note: read-out: Coupled exchange IC50 (5 min; μM); 5 min compound pre-incubation.
`C=CC(=O)N1C[C@H](C)N(c2nc(=O)n(-c3c(C)ccnc3C(C)C)c3nc(-c4cc(F)ccc4F)c(F)cc23)C[C@H]1C` (atropisomer, axis not shown; (M)) [Example 94-3, (M)-7-(2,5-difluorophenyl)-4-[(2S,5R)-2,5-dimethyl-4-prop-2-enoyl-piperazin-1-yl]-6-fluoro-1-(2~ isopropyl-4-methyl-3-pyridyl)pyrido [2,3-d]pyrimidin-2-one]: the IC50 was 0.684 µM.

As to `C=CC(=O)N1C[C@H](C)N(c2nc(=O)n(-c3c(C)ccnc3C(C)C)c3nc(-c4cc(OC)ccc4Cl)c(F)cc23)C[C@H]1C` (atropisomer, axis not shown; (M)) [Example 94-6, (M)-7-(2-chloro-5-methoxy-phenyl)-4-[(2S,5R)-2,5-dimethyl-4-prop-2-enoyl-piperazin-1-yl]-6-fluoro-1-(2-isopropyl-4-methyl-3-pyridyl)pyrido [2,3-d]pyrimidin-2-one], the IC50 stood at 0.468 µM. Still for that read-out and setting: with `C=CC(=O)N1C[C@H](C)N(c2nc(=O)n(-c3c(C)ccnc3C(C)C)c3nc(-c4c(C)cccc4C)c(F)cc23)C[C@H]1C` (atropisomer, axis not shown; (M)) [Example 94-9, (M)-7-(2,6-Dimethylphenyl)-4-[(2S,5R)-2,5-dimethyl-4-prop-2-enoyl-piperazin-1-yl]-6-fluoro-1-(2-isopropyl-4-methyl-3-pyridyl)pyrido [2,3-d]pyrimidin-2-one] the figure was 0.469 µM; with `C=CC(=O)N1C[C@H](C)N(c2nc(=O)n(-c3c(C)ccnc3C(C)C)c3nc(-c4c(F)cccc4F)c(F)cc23)C[C@H]1C` (atropisomer, axis not shown; (M)) [Example 94-11, (M)-7-(2,6-Difluorophenyl)-4-[(2S,5R)-2,5-dimethyl-4-prop-2-enoyl-piperazin-1-yl]-6-fluoro-1-(2-isopropyl-4-methyl-3-pyridyl)pyrido [2,3-d]pyrimidin-2-one], 0.844 µM; with `C=CC(=O)N1C[C@H](C)N(c2nc(=O)n(-c3c(C)ccnc3C(C)C)c3nc(-c4ccccc4C(F)F)c(F)cc23)C[C@H]1C` (atropisomer, axis not shown; (M)) [Example 94-13, (M)-7-[2-(Difluoromethyl)phenyl]-4-[(2S,5R)-2,5-dimethyl-4-prop-2-enoyl-piperazin-1-yl]-6-fluoro-1-(2-isopropyl-4-methyl-3-pyridyl)pyrido [2,3-d]pyrimidin-2-one], 0.387 µM.

On to `C=CC(=O)N1C[C@H](C)N(c2nc(=O)n(-c3c(C)ccnc3C(C)C)c3nc(-c4ccccc4C(=O)O)c(F)cc23)C[C@H]1C` (atropisomer, axis not shown; (M)) [Example 94-15, (M)-2-[4-[(2S,5R)-2,5-Dimethyl-4-prop-2-enoyl-piperazin-1-yl]-6-fluoro-1-(2-isopropyl-4-methyl-3-pyridyl)-2-oxo-pyrido[2,3-a]pyrimidin-7-yl]benzoic acid], for which the IC50 turned out to be 0.963 µM. Same read-out and setting: then `C=CC(=O)N1C[C@H](C)N(c2nc(=O)n(-c3c(C)ccnc3C(C)C)c3nc(-c4ccccc4C(N)=O)c(F)cc23)C[C@H]1C` (atropisomer, axis not shown; (M)) [Example 94-17, (M)-2-[4-[(2S,5R)-2,5-Dimethyl-4-prop-2-enoyl-piperazin-1-yl]-6-fluoro-1-(2-isopropyl-4-methyl-3-pyridyl)-2-oxo-pyrido[2,3-d]pyrimidin-7-yl]benzamide], with 0.39 µM; and `C=CC(=O)N1C[C@H](C)N(c2nc(=O)n(-c3c(C)ccnc3C(C)C)c3nc(-c4ccccc4C(=O)NC)c(F)cc23)C[C@H]1C` (atropisomer, axis not shown; (M)) [Example 94-18], with 0.749 µM; and `C=CC(=O)N1C[C@H](C)N(c2nc(=O)n(-c3c(C)ccnc3C(C)C)c3nc(-c4ccccc4N)c(F)cc23)C[C@H]1C` (atropisomer, axis not shown; (M)) [Example 94-20, (M)-7-(2-Aminophenyl)-4-[(2S,5R)-2,5-dimethyl-4-prop-2-enoyl-piperazin-1-yl]-6-fluoro-1-(2-isopropyl-4-methyl-3-pyridyl)pyrido [2,3-d]pyrimidin-2-one], with 0.452 µM. For the molecule `C=CC(=O)N1C[C@H](C)N(c2nc(=O)n(-c3c(C)ccnc3C(C)C)c3nc(-c4cc(OC)cc5ccccc45)c(F)cc23)C[C@H]1C` (atropisomer, axis not shown; (M)) [Example 94-21, (M)-4-[(2S,5R)-2,5-Dimethyl-4-prop-2-enoyl-piperazin-1-yl]-6-fluoro-1-(2-isopropyl-4-methyl-3-pyridyl)-7-(3-methoxy-1-naphthyl)pyrido[2,3-d]pyrimidin-2-one], the IC50 came to 32.4 µM.

`C=CC(=O)N1C[C@H](C)N(c2nc(=O)n(-c3c(C)ccnc3C(C)C)c3nc(CC(C)(C)C)c(Cl)cc23)C[C@H]1C` (atropisomer, axis not shown; (M)) [Example 95-2, (M)-6-chloro-4-[(2S,5R)-2,5-dimethyl-4-prop-2-enoyl-piperazin-1-yl]-7-(2,2-dimethylpropyl)-1-(2-isopropyl-4-methyl-3-pyridyl)pyrido [2,3-d]pyrimidin-2-one]: the IC50 was 1.04 µM. Same read-out and setting: then `C=CC(=O)N1C[C@H](C)N(c2nc(=O)n(-c3c(C)ccnc3C(C)C)c3nc(C4CCCC4)c(Cl)cc23)C[C@H]1C` (atropisomer, axis not shown; (M)) [Example 95-3, (M)-6-chloro-7-cyclopentyl-4-[(2S,5R)-2,5-dimethyl-4-prop-2-enoyl-piperazin-1-yl]-1-(2-isopropyl-4-methyl-3-pyridyl)pyrido [2,3-d]pyrimidin-2-one], with 0.631 µM.

On to `C=CC(=O)N1C[C@H](C)N(c2nc(=O)n(-c3c(C)ccnc3C(C)C)c3nc(C4CC4)c(Cl)cc23)C[C@H]1C` (atropisomer, axis not shown; (M)) [Example 95-4, (M)-6-chloro-7-cyclopropyl-4-[(2S,5R)-2,5-dimethyl-4-prop-2-enoyl-piperazin-1-yl]-1-(2-isopropyl-4-methyl-3-pyridyl)pyrido [2,3-d]pyrimidin-2-one], for which the IC50 came out at 0.571 µM.

With `C=CC(=O)N1C[C@H](C)N(c2nc(=O)n(-c3c(C)ccnc3C(C)C)c3nc(CCC)c(Cl)cc23)C[C@H]1C` (atropisomer, axis not shown; (M)) [Example 95-6, (M)-6-chloro-4-[(2S,5R)-2,5-dimethyl-4-prop-2-enoyl-piperazin-1-yl]-1-(2-isopropyl-4-methyl-3-pyridyl)-7-propyl-pyrido[2,3-d]pyrimidin-2-one], the IC50 was found to be 0.823 µM. Same read-out and setting: with `C=CC(=O)N1C[C@H](C)N(c2nc(=O)n(-c3c(C)ccnc3C(C)C)c3nc(C#CC(C)(C)C)c(Cl)cc23)C[C@H]1C` (atropisomer, axis not shown; (M)) [Example 95-7, (M)-6-chloro~7-(3,3-dimethylbut-1-ynyl)-4-[(2S,5R)-2,5-dimethyl-4-prop-2-enoyl-piperazin-1-yl]-1-(2-isopropyl-4-methyl-3-pyridyl)pyrido [2,3-d]pyrimidin-2-one] the figure was 34 µM; with `C=CC(=O)N1C[C@H](C)N(c2nc(=O)n(-c3c(C)ccnc3C(C)C)c3nc(-c4ncccc4C)c(Cl)cc23)C[C@H]1C` (atropisomer, axis not shown; (M)) [Example 96-1, (M)-6-Chloro-4-[(2S,5R)-2,5-dimethyl-4-prop-2-enoyl-piperazin-1-yl]-1-(2-isopropyl-4-methyl-3-pyridyl)-7-(3-methyl-2-pyridyl)pyrido[2,3-d]pyrimidin-2-one], 0.345 µM; with `C=CC(=O)N1C[C@H](C)N(c2nc(=O)n(-c3c(C)ccnc3C(C)C)c3nc(-c4ccccc4N(C)C(C)=O)c(Cl)cc23)C[C@H]1C` (atropisomer, axis not shown; (M)) [Example 129-3, (M)-N-[2-[6-Chloro-4-[(2S,5R)-2,5-dimethyl-4-prop-2-enoyl-piperazin-1-yl]-1-(2-isopropyl-4-methyl-3-pyridyl)-2-oxo-pyrido[2,3-d]pyrimidin-7-yl]phenyl]-N-methyl-acetamide], 0.352 µM. For `C=CC(=O)N1C[C@H](C)N(c2nc(=O)n(-c3c(C)ccnc3C(C)C)c3nc(-c4cc(O)cc5ccccc45)c(F)cc23)C[C@H]1C` (atropisomer, axis not shown; (M)) [Example 132-2, (M)-4-[(2S,5R)-2,5-dimethyl-4-prop-2-enoyl-piperazin-1-yl]-6-fluoro-7-(3-hydroxy-1-naphthyl)-1-(2-isopropyl-4-methyl-3-pyridyl)pyrido[2,3-d]pyrimidin-2-one], the IC50 is 0.57 µM. On to `C=CC(=O)N1CCN(c2nc(=O)n(-c3c(C)ccnc3C(C)C)c3nc(Cl)c(Cl)cc23)CC1CC#N` (atropisomer, axis not shown; (M)) [Example 144-2, (M)-2-[4-[6,7-Dichloro-1-(2-isopropyl-4-methyl-3-pyridyl)-2-oxo-pyrido[2,3-d]pyrimidin-4-yl]-1-prop-2-enoyl-piperazin-2-yl]acetonitrile], for which the IC50 stood at 24.9 µM. In the case of `C=CC(=O)N1CCN(c2nc(=O)n(-c3c(C)ccnc3C(C)C)c3nc(Cl)c(Cl)cc23)CC1CC#N` (atropisomer, axis not shown; (M)) [Example 144-2-1, (M)-2-[4-[6,7-Dichloro-1-(2-isopropyl-4-methyl-3-pyridyl)-2-oxo-pyrido[2,3-d]pyrimidin-4-yl]-1-prop-2-enoyl-piperazin-2-yl]acetonitrile], the IC50 came out at 63.7 µM. The same measure, in the same setting: with `C=CC(=O)N1CCN(c2nc(=O)n(-c3c(C)ccnc3C(C)C)c3nc(-c4ccccc4F)c(Cl)cc23)[C@@H]2C[C@@H]21` (atropisomer, axis not shown; (M)) [Example 222-1, (M)-4-((1R,6S)-5-Acryloyl-2,5-diazabicyclo[4.1.0]heptan-2-yl)-6-chloro-7-(2-fluorophenyl)-1-(2-isopropyl-4-methylpyridin-3-yl)pyrido[2,3-d]pyrimidin-2(1H)-one] the figure was 0.95 µM.
